# Earlier results, collected in patent US20120237456A1, “ORAL COMPOSITIONS CONTAINING EXTRACTS OF GARCINIA MANGOSTANA L. AND RELATED METHODS” (Colgate-Palmolive Company, priority 2009, published 2012).
# Key:
# cAMP phosphodiesterase = details: reported by Chairungsrilerd and Takeuchi et al., 1996
# COX 1 = COX 1 (Homo sapiens, UniProt P23219); details: Nakatani et al., 2002 and 2004
# serotonin receptors = details: Chairungsrilerd, Furukawa et al., 1996 and 1998
# [1] = compared with BHA and a-tocopherol (vitamin E); Yoshikawa et al., 1994; Fan and Su, 1997
# DNA topoisomerase = details: Tosa et al., 1997
# Sequence of COX 1 (P23219 24-599): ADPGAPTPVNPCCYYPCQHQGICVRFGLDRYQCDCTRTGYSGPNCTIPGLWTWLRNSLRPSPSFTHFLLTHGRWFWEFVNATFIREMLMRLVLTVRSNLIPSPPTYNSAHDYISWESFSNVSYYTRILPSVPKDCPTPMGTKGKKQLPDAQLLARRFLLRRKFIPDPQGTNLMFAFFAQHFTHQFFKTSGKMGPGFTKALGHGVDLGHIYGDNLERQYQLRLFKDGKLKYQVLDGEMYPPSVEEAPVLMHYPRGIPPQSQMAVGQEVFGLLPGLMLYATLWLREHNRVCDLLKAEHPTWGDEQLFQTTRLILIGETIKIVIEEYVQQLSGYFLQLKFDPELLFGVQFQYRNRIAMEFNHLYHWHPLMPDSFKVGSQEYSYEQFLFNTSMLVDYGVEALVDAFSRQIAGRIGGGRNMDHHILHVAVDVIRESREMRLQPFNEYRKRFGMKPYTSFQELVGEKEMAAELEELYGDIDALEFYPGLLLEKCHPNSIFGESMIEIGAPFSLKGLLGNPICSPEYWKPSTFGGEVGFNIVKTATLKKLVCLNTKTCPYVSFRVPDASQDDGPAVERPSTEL
inhibition of cAMP phosphodiesterase (cAMP phosphodiesterase),SMILES,inhibition of the activity of cyclooxygenase COX 1 (COX 1),antagonism of serotonin receptors (serotonin receptors),antioxidative activity [1],inhibition of DNA topoisomerase (DNA topoisomerase)
strong inhibition,COc1c(O)cc2oc3cc4c(c(O)c3c(=O)c2c1CC=C(C)C)CC(O)C(C)(C)O4 (centres unmarked) [Mangostanol],,,,
,CC(C)=CCc1c(O)cc2oc3cc(O)c(O)c(CC=C(C)C)c3c(=O)c2c1O [γ-mangostin],directly inhibit,antagonist,more potent antioxidative activity than BHA,inhibit
